# Laboratory results reported in patent US20100104567A1, “PHARMACEUTICAL COMPOSITION” (KYOWA HAKKO KIRIN CO., LTD., priority 2007, published 2010).
# Like-named read-outs stand apart in the source and are kept apart here.
# Assays:
# [1] = system: human acute myeloid leukemia MOLM-13 cells; experiment: Antitumor effect of Flt-3 inhibitor and Hsp90 inhibitor in mouse models transplanted with MOLM-13 cells; format: in vivo; details: day 7; scid mice, s.c. MOLM-13; Compound P 12.5 mg/kg i.v. twice a day x 5 days; Compound 9 10 mg/kg oral twice a day x 5 days
# [2] = system: human pancreatic cancer MIA-Paca-2 cells; experiment: Antitumor effect of Flt-3 inhibitor and cetuximab in mouse models transplanted with MIA-Paca-2 cells; format: in vivo; details: day 24; scid mice, s.c. MIA-PaCa-2; Compound 9 50 mg/kg oral twice a day x 5 days; cetuximab 2.5 mg/head i.v. days 0, 3, 6, 9, 12
# [3] = system: human acute myeloid leukemia MOLM-13 cells; experiment: Antitumor effect of Flt-3 inhibitor and cytarabine in mouse models transplanted with MOLM-13 cells; details: day 14; scid mice, s.c. MOLM-13; Compound 9 5 mg/kg oral twice a day x 14 days; cytarabine 75 mg/kg i.v. once a day x 5 days
# [4] = system: human pancreatic cancer MIA-Paca-2 cells; experiment: Antitumor effect of Flt-3 inhibitor and gemcitabine in mouse models transplanted with MIA-Paca-2 cells; format: in vivo; details: day 24; scid mice, s.c. MIA-PaCa-2; Compound 9 25 mg/kg oral twice a day x 5 days; gemcitabine 60 mg/kg i.v. days 0, 3, 7, 10
# Description: [formula] […] A. […] B. […] C. Gemcitabine alone group: 60 mg/kg (once a day/days zero, 3, 7, and 10 after the start of administration) D.
# [5] = system: human renal cancer Caki-1 cells; experiment: Antitumor effect of Flt-3 inhibitor and sunitinib in mouse models transplanted with Caki-1 cells; details: day 18; BALB/cAJcl-nu mice, s.c. Caki-1 tumor pieces; Compound 9 50 mg/kg oral twice a day days 0-4; sunitinib 40 mg/kg oral twice a day x 5 days (alone days 0-4, combined days 7-11)
# [6] = system: human renal cancer Caki-1 cells; details: day 10; BALB/cAJcl-nu mice, s.c. Caki-1 tumor pieces; Compound 9 25 mg/kg oral twice a day x 5 days; erlotinib 50 mg/kg oral once a day x 5 days
# [7] = system: human colon cancer Colo205 cells; experiment: Antitumor effect of Flt-3 inhibitor and 5-fluorouracil (5-FU) in mouse models transplanted with Colo205 cells; format: in vivo; details: day 7; BALB/cAJcl-nu mice, s.c. Colo205; Compound 9 20 mg/kg oral twice a day x 5 days; 5-FU 10 mg/kg i.v. once a day x 5 days
# [8] = system: human colon cancer Colo205 cells; experiment: Antitumor effect of Flt-3 inhibitor and irinotecan in mouse models transplanted with Colo205 cells; format: in vivo; details: day 11; BALB/cAJcl-nu mice, s.c. Colo205; Compound 9 20 mg/kg oral twice a day x 5 days; irinotecan 67 mg/kg i.v. days 0 and 3
# Description: [formula] […] Irinotecan was suspended in physiological saline at a concentration of 6.7 mg/mL. […] A. […] B. […] C. Irinotecan alone group: 67 mg/kg (once a day/days zero and 3 after the start of administration) D.
# [9] = system: human acute myeloid leukemia HL-60 cells; experiment: Antitumor effect of Flt-3 inhibitor and daunorubicin in mouse models transplanted with HL-60 cells; format: in vivo; details: day 17; scid mice, s.c. HL-60; Compound 9 20 mg/kg oral twice a day x 14 days; daunorubicin 2.5 mg/kg i.v. once a day x 3 days
# Description: B. Compound 9 alone group: 20 mg/kg (twice a day×14 days)
# C. Daunorubicin alone group: 2.5 mg/kg (once a day×3 days)
# D. Compound 9+daunorubicin: 20 mg/kg (twice a day×14 days) for Compound 9, and 2.5 mg/kg (once a day×3 days) for daunorubicin
smiles,measurement,setting,value
O=C(c1ccc(/C=C/c2n[nH]c3ccccc23)cc1)N1CCNCC1 [Compound 9],T/C (V/V0 of group divided by V/V0 of negative control group),[1],0.29
same,T/C (V/V0 of group divided by V/V0 of negative control group),[2],0.59
same,T/C (V/V0 of group divided by V/V0 of negative control group),[3],0.29
same,T/C (V/V0 of group divided by V/V0 of negative control group),[4],0.84
same,T/C (V/V0 of group divided by V/V0 of negative control group),[5],0.50
same,T/C (V/V0 of group divided by V/V0 of negative control group),[6],0.71
same,T/C (V/V0 of group divided by V/V0 of negative control group),[7],0.68
same,T/C (V/V0 of group divided by V/V0 of negative control group),[8],0.75
same,T/C (V/V0 of group divided by V/V0 of negative control group),[9],0.42
"Nc1ccn([C@@H]2O[C@H](CO)[C@@H](O)C2(F)F)c(=O)n1 [Gemcitabine, reference compound]",T/C (V/V0 of group divided by V/V0 of negative control group),[4],0.57
"C#Cc1cccc(Nc2ncnc3cc(OCCOC)c(OCCOC)cc23)c1 [Erlotinib, reference compound]",T/C (V/V0 of group divided by V/V0 of negative control group),[6],0.89
"COc1cccc2c1C(=O)c1c(O)c3c(c(O)c1C2=O)C[C@@](O)(C(C)=O)C[C@@H]3O[C@H]1C[C@H](N)[C@H](O)[C@H](C)O1 [Daunorubicin, reference compound]",T/C (V/V0 of group divided by V/V0 of negative control group),[9],0.61
"CCN(CC)CCNC(=O)c1c(C)[nH]c(/C=C2\C(=O)Nc3ccc(F)cc32)c1C [Sunitinib, reference compound]",T/C (V/V0 of group divided by V/V0 of negative control group),[5],0.62
"CCc1c(O)cc(O)c(C(=O)c2ccc(OCCN3CCOCC3)c(OC)c2)c1CC(=O)N(CCOC)CCOC [Compound P, 2-{2-ethyl-3,5-dihydroxy-6-[3-methoxy-4-(2-morpholinoethoxy)benzoyl]pheny1]-N,N-bis(2-methoxyethyl)acetamide, reference compound]",T/C (V/V0 of group divided by V/V0 of negative control group),[1],0.53
"O=c1[nH]cc(F)c(=O)[nH]1 [Compound 5-FU, 5-fluorouracil, reference compound]",T/C (V/V0 of group divided by V/V0 of negative control group),[7],0.81
"CCc1c2c(nc3ccc(OC(=O)N4CCC(N5CCCCC5)CC4)cc13)-c1cc3c(c(=O)n1C2)COC(=O)[C@]3(O)CC [Irinotecan, reference compound]",T/C (V/V0 of group divided by V/V0 of negative control group),[8],0.65
"Nc1ccn([C@@H]2O[C@H](CO)[C@@H](O)[C@@H]2O)c(=O)n1 [Cytarabine, reference compound]",T/C (V/V0 of group divided by V/V0 of negative control group),[3],0.62
